From patent US7999132B2, “Anthranilic acid derivative or salt thereof” (Toyama Chemical Co., Ltd., priority 2004, dated 2011)

system: MMP-13; assay: MMP-13 Production Inhibition Test; type: cell-based, human; settings: Homo sapiens; 30 μmol/L; SW1353 cells stimulated with IL-1β 10 ng/mL; MMP-13 in culture supernatant by ELISA 16 hours after stimulation; read-out: Inhibition rate (%) at 30 μmol/L
Protocol: MMP-13 Production Inhibition Test
6.8×10^3 human cartilage derived cell line SW1353 cells were suspended in 100 μL of Dulbecco modified Eagle's medium supplemented with 10% fetal calf serum, plated on 96-well plates and cultured for 3 days. After the culture medium was changed to Dulbecco modified Eagle's medium containing 0.2% lactalbumin hydrolysate and the cells were cultured for 6 hours, […] were added and then IL-1β was added to obtain the final concentration of 10 ng/mL 1 hour later. 16 hours after the stimulation, supernatant was collected and the amount of MMP-13 in the culture supernatant was determined with an ELISA kit (Amersham). The inhibition rate was calculated from the amount of MMP-13 in the presence of a test compound assuming that the amount of MMP-13 was 100% in the absence of the test compound.

| Compound | inhibition at 30 µM [%] |
| --- | --- |
| O=C(Nc1cc(CCc2ccccc2)ccc1C(=O)O)c1ccccc1 [Example 25, 2-(benzamido)-4-phenethylbenzoic acid] | 86 |
| O=C(Nc1cc(CCc2ccccc2)ccc1C(=O)O)c1ccc(C(F)(F)F)cc1 [Example 264, 4-Phenethyl-2-(4-(trifluoromethyl)benzamido)benzoic acid] | 94 |
| O=C(Nc1cc(-c2cc3ccccc3o2)ccc1C(=O)O)c1ccccc1 [Example 8, 2-(benzamido)-4-(benzofuran-2-yl)benzoic acid] | 95 |
| O=C(Nc1cc(Oc2ccccc2)ccc1C(=O)O)c1ccc(-n2cccc2)nc1 [Example 499, 4-Phenoxy-2-(6-(1H-pyrrol-1-yl)pyridine-3-carboxamido)benzoic acid] | 99 |
| O=C(Nc1cc(-c2ccc(F)cc2F)ccc1C(=O)O)c1ccc(F)cc1 [Example 150, 4-(2,4-difluorophenyl)-2-(4-fluorobenzamido)benzoic acid] | 96 |
| O=C(Nc1cc(/C=C/c2cccc(Cl)c2)ccc1C(=O)O)c1ccccc1 [Example 134, 2-(Benzamido)-4-((E)-2-(3-chlorophenyl)vinyl)benzoic acid] | 99 |
| O=C(Nc1cc(-c2cccc(OC(F)(F)F)c2)ccc1C(=O)O)c1ccccc1 [Example 234, 2-(Benzamido)-4-(3-(trifluoromethoxy)phenyl)benzoic acid] | 99 |
| O=C(Nc1cc(Oc2cc(F)cc(F)c2)ccc1C(=O)O)c1ccccc1 [Example 539, 2-(benzamido)-4-(3,5-difluorophenoxy)benzoic acid] | 97 |
| COc1cccc(Oc2ccc(C(=O)O)c(NC(=O)c3ccccc3)c2)c1 [Example 543, 2-(Benzamido)-4-(3-methoxyphenoxy)benzoic acid] | 85 |
| Cc1cccc(C)c1Oc1ccc(C(=O)O)c(NC(=O)c2ccccc2)c1 [Example 564, 2-(Benzamido)-4-(2,6-dimethylphenoxy)benzoic acid] | 97 |
| O=C(Nc1cc(/C=C/c2cc(F)cc(F)c2)ccc1C(=O)O)c1ccccc1 [Example 130, 2-(Benzamido)-4-((E)-2-(3,5-difluorophenyl)vinyl)benzoic acid] | 96 |

system: DBA/1J mice; assay: Type II Collagen-induced Arthritis in Mice; type: in vivo; settings: 30 mg/kg orally once a day from the 21st day to the 35th day; X-ray of the four limbs on the 36th day; male DBA/1J mice
Protocol: Type II Collagen-induced Arthritis in Mice
Eight-week old male DBA/1J mice were used (Charles River Laboratories Japan Inc.). 4 mg/mL bovine type II collagen (Collagen Gijutsu Kenshukai) dissolved in 0.01 mol/L of acetic acid aqueous solution and an equal amount of Freund's complete adjuvant (Chondorex) containing 1 mg/mL of killed tuberculosis bacillus were added to prepare an emulsion, and 0.1 mL thereof was intradermally injected at the base of tail. Similar treatment was conducted on the 21st day to cause arthritis. The test compound was suspended in 0.5% methylcellulose aqueous solution, and 30 mg/kg was orally administered once a day from the 21st day to the 35th day. In the control group, 0.5% methylcellulose aqueous solution was administered in the same manner. The severity of arthritis was estimated by scoring at zero point for an animal without change; one point for an animal with swelling at the one or two finger joint or light swelling only at the carpal or tarsal joint; two points for an animal with severe swelling at the carpal or tarsal joint or with swelling at three or more finger joints; three points for an animal with severe swelling along the whole foreleg or hindleg and thus counting 12 points at the maximum for the four limbs as arthritis score. […] The inhibitory rate was determined by the following expression. […]

| Compound | inhibitory action on bone destruction (bone destruction score) |
| --- | --- |
| O=C(Nc1cc(CCc2ccccc2)ccc1C(=O)O)c1ccccc1 [Example 25, 2-(benzamido)-4-phenethylbenzoic acid] | exhibited inhibitory action |

same assay, conditions: 30 mg/kg orally once a day from the 21st day to the 35th day; male DBA/1J mice

| Compound | inhibitory action on arthritis (arthritis score) |
| --- | --- |
| O=C(Nc1cc(CCc2ccccc2)ccc1C(=O)O)c1ccccc1 [Example 25, 2-(benzamido)-4-phenethylbenzoic acid] | exhibited inhibitory action |
